From the supplement of paper PMC10307832

Key:
Test in all cases: relative viability (nuclei count vs DMSO), 5 days (fraction); higher = more cells survive
RAF265 + Crizotinib = compound: Cn1c(Nc2ccc(C(F)(F)F)cc2)nc2cc(Oc3ccnc(-c4ncc(C(F)(F)F)[nH]4)c3)ccc21 [RAF265] + C[C@@H](Oc1cc(-c2cnn(C3CCNCC3)c2)cnc1N)c1c(Cl)ccc(F)c1Cl [Crizotinib] (partner 1 µM)
Method in brief: (§1)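 Relative viability was taken as the ratio of nuclei in treated wells to nuclei in vehicle wells. Lung cancer cell lines in 1536-well plates received compounds by pin tool one day after seeding, either one drug alone or a fixed anchor-drug dose plus five library-drug doses (not always all listed) in √10 steps. Nuclei were counted on 4× images after 5 days of treatment, and values are medians of duplicate plates.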

RAF265 + Alpelisib = compound: Cn1c(Nc2ccc(C(F)(F)F)cc2)nc2cc(Oc3ccnc(-c4ncc(C(F)(F)F)[nH]4)c3)ccc21 [RAF265] + Cc1nc(NC(=O)N2CCC[C@H]2C(N)=O)sc1-c1ccnc(C(C)(C)C(F)(F)F)c1 [Alpelisib] (partner 2 µM)
Method in brief: as §1

RAF265 + OSI-027 = compound: Cn1c(Nc2ccc(C(F)(F)F)cc2)nc2cc(Oc3ccnc(-c4ncc(C(F)(F)F)[nH]4)c3)ccc21 [RAF265] + COc1cccc2cc(-c3nc([C@H]4CC[C@H](C(=O)O)CC4)n4ncnc(N)c34)[nH]c12 [OSI-027] (partner 0.5 µM)
Method in brief: as §1

RAF265 + Foretinib = compound: Cn1c(Nc2ccc(C(F)(F)F)cc2)nc2cc(Oc3ccnc(-c4ncc(C(F)(F)F)[nH]4)c3)ccc21 [RAF265] + COc1cc2c(Oc3ccc(NC(=O)C4(C(=O)Nc5ccc(F)cc5)CC4)cc3F)ccnc2cc1OCCCN1CCOCC1 [Foretinib] (partner 0.25 µM)
Method in brief: as §1

Cell Line | relative viability (RAF265 + Crizotinib; first compound 0.01 µM) | relative viability (RAF265 + Crizotinib; first compound 0.03162 µM) | relative viability (RAF265 + Crizotinib; first compound 0.1 µM) | relative viability (RAF265 + Crizotinib; first compound 0.3162 µM) | relative viability (RAF265 + Crizotinib; first compound 1 µM) | relative viability (RAF265 + Alpelisib; first compound 0.01 µM) | relative viability (RAF265 + Alpelisib; first compound 0.03162 µM) | relative viability (RAF265 + Alpelisib; first compound 0.1 µM) | relative viability (RAF265 + Alpelisib; first compound 0.3162 µM) | relative viability (RAF265 + Alpelisib; first compound 1 µM) | relative viability (RAF265 + OSI-027; first compound 0.01 µM) | relative viability (RAF265 + OSI-027; first compound 0.03162 µM) | relative viability (RAF265 + OSI-027; first compound 0.1 µM) | relative viability (RAF265 + OSI-027; first compound 0.3162 µM) | relative viability (RAF265 + OSI-027; first compound 1 µM) | relative viability (RAF265 + Foretinib; first compound 0.01 µM) | relative viability (RAF265 + Foretinib; first compound 0.03162 µM) | relative viability (RAF265 + Foretinib; first compound 0.1 µM) | relative viability (RAF265 + Foretinib; first compound 0.3162 µM) | relative viability (RAF265 + Foretinib; first compound 1 µM)
201T | 1.08 | 0.996 | 1.05 | 1.06 | 1.08 | 0.981 | 1.02 | 1.07 | 1.06 | 0.981 | 0.794 | 0.799 | 0.788 | 0.58 | 0.351 | 1.1 | 1.1 | 1.09 | 1.21 | 0.945
A549 | 0.72 | 0.656 | 0.677 | 0.511 | 0.36 | 0.761 | 0.612 | 0.541 | 0.244 | 0.178 |  |  |  |  |  | 0.927 | 0.928 | 0.988 | 0.557 | 0.481
A-427 | 0.882 | 0.639 | 0.927 | 0.644 | 0.159 | 1.17 | 1.01 | 0.976 | 0.723 | 0.402 | 0.4 | 0.334 | 0.312 | 0.18 | 0.129 | 1.12 | 0.962 | 0.846 | 0.26 | 0.204
ABC-1 | 1.17 | 0.864 | 1.37 | 0.851 | 0.464 | 1.13 | 1.01 | 1.01 | 1.05 | 0.619 | 0.39 | 0.48 | 0.365 | 0.408 | 0.31 | 1.16 | 1.15 | 1.2 | 1.08 | 0.514
BEN | 0.955 | 0.911 | 0.961 | 1.07 | 0.821 | 1.08 | 1.05 | 1.2 | 1.1 | 0.814 | 0.261 | 0.29 | 0.312 | 0.311 | 0.293 | 0.665 | 0.776 | 0.701 | 0.664 | 0.568
CAL-12T | 0.66 | 0.456 | 0.638 | 0.441 | 0.298 | 1.26 | 1.04 | 0.944 | 0.575 | 0.354 | 0.633 | 0.45 | 0.313 | 0.281 | 0.327 | 1.26 | 1.12 | 1.01 | 0.924 | 0.746
COR-L23 | 0.799 | 0.75 | 0.638 | 0.465 | 0.424 | 0.785 | 0.696 | 0.669 | 0.389 | 0.304 | 0.843 | 0.723 | 0.501 | 0.278 | 0.168 | 1.01 | 0.962 | 0.864 | 0.893 | 0.644
COR-L 105 | 0.844 | 0.689 | 0.755 | 0.503 | 0.297 | 1.09 | 0.948 | 1.16 | 0.603 | 0.461 | 0.798 | 0.676 | 0.608 | 0.315 | 0.43 | 1.29 | 1.5 | 1.1 | 1.15 | 0.614
Calu-6 | 0.73 | 0.709 | 0.658 | 0.529 | 0.276 | 0.958 | 0.771 | 0.43 | 0.302 | 0.274 |  |  |  |  |  | 0.899 | 0.782 | 0.763 | 0.428 | 0.29
ChaGo-K-1 | 1.15 | 1.15 | 1.18 | 1.05 | 0.792 |  |  |  |  |  | 0.563 | 0.628 | 0.5 | 0.44 | 0.38 | 0.969 | 0.827 | 0.825 | 0.819 | 0.646
EBC-1 | 0.181 | 0.194 | 0.191 | 0.26 | 0.219 | 0.907 | 0.794 | 0.495 | 0.403 | 0.541 |  |  |  |  |  | 0.101 | 0.112 | 0.0984 | 0.107 | 0.113
EKVX | 0.909 | 0.625 | 0.998 | 0.805 | 0.773 | 0.863 | 0.842 | 0.944 | 0.516 | 0.624 | 0.689 | 0.666 | 0.744 | 0.483 | 0.534 | 1.21 | 0.676 | 0.963 | 0.419 | 0.715
EMC-BAC-2 | 0.747 | 0.685 | 0.617 | 0.501 | 0.234 | 0.735 | 0.682 | 0.692 | 0.52 | 0.263 | 0.375 | 0.342 | 0.219 | 0.232 | 0.134 | 1.09 | 0.741 | 0.753 | 0.685 | 0.276
EPLC-272H | 0.765 | 0.868 | 1.32 | 0.472 | 0.434 | 0.847 | 0.792 | 0.801 | 0.478 | 0.367 | 0.251 | 0.288 | 0.237 | 0.218 | 0.184 | 0.721 | 0.39 | 0.506 | 0.208 | 0.135
